Patent US9226506B2, “Methods of weed control in chicory” (Dow AgroSciences LLC, priority 2013, dated 2016)

Key:
[1] = test system: chicory (varieties Ecrine, Hermès); assay: Yield of chicons after forcing; assay type: in vivo, Cichorium intybus; settings: 171 DAAC and 21 days after start of forcing; for Yield of Chicons, Brut, Average / Yield of Chicons, Brut, Ecrine / Yield of Chicons, Brut, Hermès: total weight of chicons; for Yield of Chicons, Brut, Average: average of both varieties; for Yield of Chicons, Extra + 1, Ecrine / Yield of Chicons, Extra + 1, Hermès: weight of Extra and First Class chicons; for Yield of Chicons, Net, Ecrine / Yield of Chicons, Net, Hermès: weight of marketable chicons
Protocol: Trials were also performed to investigate the effect of post-emergence applications of penoxsulam or SAFARI® (triflusulfuron-methyl) on the yield of chicons in two different varieties of chicory. The trial was carried out on plots measuring 3×5 meters. Two varieties of chicory (Hermes and Ecrine) were sown. Treatments were carried out, as described above (a) 18 days after sowing, (b) 25 days after sowing, and (c) 32 days after sowing. Trial assessments were carried out 21 DAAC and 46 DAAC on the number of plants per linear meter, and on their development stage (number of leaves per plant).
(§1) Harvest was carried out 171 DAAC on 4 rows per plot. After harvest, the roots were counted and weighted, and the percent of roots usable for forcing was measured. The roots were then stored in a conservation room for 21 days until start of forcing phase. After 21 days of forcing, the chicons produced were weighed and classified in the commercial quality categories. The brut yield (total weight of chicons produced; marketable+non-marketable), net yield (weight of marketable chicons produced) and best class yield (Extra+1=weight of Extra and First Class chicons produced) were measured (in kilograms per 10 square meters (kg/10 m^2)).

undesirable vegetation = assay: Weed control field trials, overall statement; assay type: in vivo; settings: applied post-emergence to the crop and weeds
Protocol: (§2) Field trials were conducted in Northern France and Belgium, both of which are major areas for root chicory and whitloof chicory production. Trials were conducted in accordance with EPPO standard PP 1/99(3) entitled “Weeds in Roots Vegetables,” PP 1/152(4) entitled “Design and Analysis of Efficacy Evaluation Trials,” PP 1/135(3) entitled “Phytotoxic Assessment,” and PP 1/181(4) entitled “Conduct and Reporting of Efficacy Evaluation Trials Including Good Experimental Practice,” all of which are incorporated herein by reference in their entirety.
(§3) Application to all field trials was made using a small plot precision sprayer operating at between 160-400 kilopascals (kPa) pressure, delivering a spray volume of 150-400 liters per hectare (L/ha). Nozzles were of a flat fan type. Trial plot size ranged from 4.5×2.5 square meters (m^2) to 10.5×2.5 m^2. […]
(§4) In whitloof chicory (Cichorium intybus), treatments were evaluated which included either two or three post-emergence applications of herbicide. Multiple applications of herbicide were evaluated for their ability to control weed emergence during the extended period of time required for chicory cultivation. […]
3) Following treatments, the remaining plants were weighed to determine the mass per plant (expressed as g/plant) one month after the last pesticide application. […]

[2] = test system: chicory (varieties Ecrine, Hermès); assay: Chicory leaf development after post-emergence applications; parameters: species or system Cichorium intybus; settings: in vivo
Protocol: as §2
as §3, with “m^2. Plots were replicated 3 or 4 times and were arranged in a randomized block design within each trial.” for “m^2.”
as §4

chicory = test system: chicory; parameters: species or system Cichorium intybus; settings: in vivo
Protocol: as §2
as §3, with “m^2. Plots were replicated 3 or 4 times and were arranged in a randomized block design within each trial.” for “m^2.”
as §4

[3] = test system: chicory (varieties Ecrine, Hermès); assay: Chicory root development (number of roots) after post-emergence applications; assay type: in vivo, Cichorium intybus; settings: treatment with penoxsulam in chicory field trials
Protocol: Field trials were conducted in Northern France and Belgium, both of which are major areas for root chicory and whitloof chicory production. Trials were conducted in accordance with EPPO standard PP 1/99(3) entitled “Weeds in Roots Vegetables,” PP 1/152(4) entitled “Design and Analysis of Efficacy Evaluation Trials,” PP 1/135(3) entitled “Phytotoxic Assessment,” and PP 1/181(4) entitled “Conduct and Reporting of Efficacy Evaluation Trials Including Good Experimental Practice,” all of which are incorporated herein by reference in their entirety. […]
as §4
as §1, with “The roots were then stored in a conservation room for 21 days until start of forcing phase. After 21 days of forcing, the chicons produced were weighed and classified in the commercial quality categories.” left out

COc1cnc(OC)n2nc(NS(=O)(=O)c3c(OCC(F)F)cccc3C(F)(F)F)nc12 [Penoxsulam]
Yield of Chicons, Brut, Average ([1]; 5/5/5 g ai/ha): 40.7 Kg/10 m^2 | Yield of Chicons, Brut, Average ([1]; 7.5/7.5/7.5 g ai/ha): 40.8 Kg/10 m^2 | Yield of Chicons, Brut, Average ([1]; 7.5/7.5 g ai/ha): 39.6 Kg/10 m^2 | Yield of Chicons, Brut, Average ([1]; 10/10/10 g ai/ha): 45.1 Kg/10 m^2 | Yield of Chicons, Brut, Average ([1]; 11.2/11.2 g ai/ha): 39.9 Kg/10 m^2 | Yield of Chicons, Brut, Average ([1]; 15/15 g ai/ha): 39.9 Kg/10 m^2 | Yield of Chicons, Brut, Ecrine ([1]; 5/5/5 g ai/ha): 47.5 Kg/10 m^2 | Yield of Chicons, Brut, Hermès ([1]; 5/5/5 g ai/ha): 33.8 Kg/10 m^2 | Yield of Chicons, Brut, Ecrine ([1]; 7.5/7.5/7.5 g ai/ha): 45.1 Kg/10 m^2 | Yield of Chicons, Brut, Hermès ([1]; 7.5/7.5/7.5 g ai/ha): 36.5 Kg/10 m^2 | Yield of Chicons, Brut, Ecrine ([1]; 7.5/7.5 g ai/ha): 42.4 Kg/10 m^2 | Yield of Chicons, Brut, Hermès ([1]; 7.5/7.5 g ai/ha): 36.7 Kg/10 m^2 | Yield of Chicons, Brut, Ecrine ([1]; 10/10/10 g ai/ha): 50.7 Kg/10 m^2 | Yield of Chicons, Brut, Hermès ([1]; 10/10/10 g ai/ha): 39.4 Kg/10 m^2 | Yield of Chicons, Brut, Ecrine ([1]; 11.2/11.2 g ai/ha): 42.8 Kg/10 m^2 | Yield of Chicons, Brut, Hermès ([1]; 11.2/11.2 g ai/ha): 37 Kg/10 m^2 | Yield of Chicons, Brut, Ecrine ([1]; 15/15 g ai/ha): 46.4 Kg/10 m^2 | Yield of Chicons, Brut, Hermès ([1]; 15/15 g ai/ha): 33.4 Kg/10 m^2 | Yield of Chicons, Extra + 1, Ecrine ([1]; 5/5/5 g ai/ha): 29 Kg/10 m^2 | Yield of Chicons, Extra + 1, Hermès ([1]; 5/5/5 g ai/ha): 17.7 Kg/10 m^2 | Yield of Chicons, Extra + 1, Ecrine ([1]; 7.5/7.5/7.5 g ai/ha): 27.2 Kg/10 m^2 | Yield of Chicons, Extra + 1, Hermès ([1]; 7.5/7.5/7.5 g ai/ha): 18.6 Kg/10 m^2 | Yield of Chicons, Extra + 1, Ecrine ([1]; 7.5/7.5 g ai/ha): 28.2 Kg/10 m^2 | Yield of Chicons, Extra + 1, Hermès ([1]; 7.5/7.5 g ai/ha): 21.1 Kg/10 m^2 | Yield of Chicons, Extra + 1, Ecrine ([1]; 10/10/10 g ai/ha): 29.5 Kg/10 m^2 | Yield of Chicons, Extra + 1, Hermès ([1]; 10/10/10 g ai/ha): 19.2 Kg/10 m^2 | Yield of Chicons, Extra + 1, Ecrine ([1]; 11.2/11.2 g ai/ha): 25 Kg/10 m^2 | Yield of Chicons, Extra + 1, Hermès ([1]; 11.2/11.2 g ai/ha): 22.8 Kg/10 m^2 | Yield of Chicons, Extra + 1, Ecrine ([1]; 15/15 g ai/ha): 30.7 Kg/10 m^2 | Yield of Chicons, Extra + 1, Hermès ([1]; 15/15 g ai/ha): 16.1 Kg/10 m^2 | Yield of Chicons, Net, Ecrine ([1]; 5/5/5 g ai/ha): 36.4 Kg/10 m^2 | Yield of Chicons, Net, Hermès ([1]; 5/5/5 g ai/ha): 25.6 Kg/10 m^2 | Yield of Chicons, Net, Ecrine ([1]; 7.5/7.5/7.5 g ai/ha): 34.6 Kg/10 m^2 | Yield of Chicons, Net, Hermès ([1]; 7.5/7.5/7.5 g ai/ha): 25.7 Kg/10 m^2 | Yield of Chicons, Net, Ecrine ([1]; 7.5/7.5 g ai/ha): 33.9 Kg/10 m^2 | Yield of Chicons, Net, Hermès ([1]; 7.5/7.5 g ai/ha): 26.6 Kg/10 m^2 | Yield of Chicons, Net, Ecrine ([1]; 10/10/10 g ai/ha): 38.7 Kg/10 m^2 | Yield of Chicons, Net, Hermès ([1]; 10/10/10 g ai/ha): 27.7 Kg/10 m^2 | Yield of Chicons, Net, Ecrine ([1]; 11.2/11.2 g ai/ha): 33.2 Kg/10 m^2 | Yield of Chicons, Net, Hermès ([1]; 11.2/11.2 g ai/ha): 28.6 Kg/10 m^2 | Yield of Chicons, Net, Ecrine ([1]; 15/15 g ai/ha): 37.4 Kg/10 m^2 | Yield of Chicons, Net, Hermès ([1]; 15/15 g ai/ha): 22.5 Kg/10 m^2 | control of undesirable vegetation (undesirable vegetation): good control of undesirable vegetation | Average number of leaves (measured 21 DAAC) Average [2]: 7 a | crop tolerance (chicory): commercially acceptable crop tolerance | visible crop injury (chicory): some visible crop injury | effect on root yield [3]: no deleterious effect on root yield
